Test results from ChEMBL document CHEMBL4507259 (2021).

How the values were obtained:
[1] = molecular target: Eukaryotic translation initiation factor 2-alpha kinase 1 (Homo sapiens) (UniProt Q9BQI3); details: Compound concentration 1000.0 nM
[2] = tested on: Epidermal growth factor receptor (Homo sapiens), P00533 [UNDEFINED MUTATION]; details: Compound concentration 1000.0 nM
[3] = molecular target: Dual specificity mitogen-activated protein kinase kinase 6 (Homo sapiens) (UniProt P52564); details: Compound concentration 1000.0 nM
[4] = molecular target: Endothelin-1 receptor (Homo sapiens) (UniProt P25101); test: ETA (h) CEREP ligand profiling; details: filed as agonist, Compound concentration 10.0 uM
[5] = molecular target: Casein kinase I isoform gamma-2 (Homo sapiens) (UniProt P78368); details: Compound concentration 1000.0 nM
[6] = molecular target: Fibroblast growth factor receptor 3 (Homo sapiens) (UniProt P22607); details: Compound concentration 1000.0 nM
[7] = molecular target: Ephrin type-A receptor 4 (Homo sapiens) (UniProt P54764); details: Compound concentration 1000.0 nM
Ephrin type-A receptor 4 (Homo sapiens), sequence (P54764 whole entry): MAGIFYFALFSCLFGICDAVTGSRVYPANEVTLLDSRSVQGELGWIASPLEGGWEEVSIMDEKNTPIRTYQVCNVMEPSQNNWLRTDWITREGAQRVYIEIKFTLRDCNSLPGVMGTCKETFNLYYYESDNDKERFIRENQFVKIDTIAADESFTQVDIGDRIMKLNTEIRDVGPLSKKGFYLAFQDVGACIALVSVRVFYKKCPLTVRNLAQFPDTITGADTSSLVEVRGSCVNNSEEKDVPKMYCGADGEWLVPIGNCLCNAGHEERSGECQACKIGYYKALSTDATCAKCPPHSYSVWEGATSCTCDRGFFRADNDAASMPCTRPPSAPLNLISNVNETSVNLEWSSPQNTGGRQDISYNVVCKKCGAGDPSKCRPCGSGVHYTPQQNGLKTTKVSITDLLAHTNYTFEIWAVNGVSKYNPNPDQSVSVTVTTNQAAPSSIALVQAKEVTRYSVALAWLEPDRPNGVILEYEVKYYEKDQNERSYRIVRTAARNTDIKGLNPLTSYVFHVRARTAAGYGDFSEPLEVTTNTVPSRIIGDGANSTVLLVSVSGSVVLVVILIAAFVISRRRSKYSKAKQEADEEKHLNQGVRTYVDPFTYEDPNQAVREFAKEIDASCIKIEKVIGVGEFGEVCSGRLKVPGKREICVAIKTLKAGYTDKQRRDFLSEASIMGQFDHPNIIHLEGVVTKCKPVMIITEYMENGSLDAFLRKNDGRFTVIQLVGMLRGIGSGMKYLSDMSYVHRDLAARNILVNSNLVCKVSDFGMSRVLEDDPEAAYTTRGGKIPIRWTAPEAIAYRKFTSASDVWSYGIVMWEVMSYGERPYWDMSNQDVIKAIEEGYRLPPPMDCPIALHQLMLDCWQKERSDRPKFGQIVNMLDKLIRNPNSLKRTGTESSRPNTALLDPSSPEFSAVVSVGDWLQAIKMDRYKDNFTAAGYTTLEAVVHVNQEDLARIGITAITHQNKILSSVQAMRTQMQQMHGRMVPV

[8] = molecular target: Non-receptor tyrosine-protein kinase TYK2 (Homo sapiens) (UniProt P29597); details: Compound concentration 1000.0 nM
[9] = molecular target: Ribosomal protein S6 kinase alpha-6 (Homo sapiens) (UniProt Q9UK32); details: Compound concentration 1000.0 nM
[10] = molecular target: Non-receptor tyrosine-protein kinase TNK1 (Homo sapiens) (UniProt Q13470); details: Compound concentration 1000.0 nM
[11] = molecular target: Tyrosine-protein kinase JAK1 (Homo sapiens) (UniProt P23458); details: Compound concentration 1000.0 nM
[12] = molecular target: Epithelial discoidin domain-containing receptor 1 (Homo sapiens) (UniProt Q08345); details: Compound concentration 1000.0 nM
[13] = molecular target: 5-hydroxytryptamine receptor 1E (Homo sapiens) (UniProt P28566); details: Compound concentration 10.0 uM
[14] = molecular target: Beta-2 adrenergic receptor (Homo sapiens) (UniProt P07550); details: Compound concentration 10.0 uM
[15] = molecular target: Serine/threonine-protein kinase 36 (Homo sapiens) (UniProt Q9NRP7); details: Compound concentration 1000.0 nM
[16] = molecular target: Vasoactive intestinal polypeptide receptor 1 (Homo sapiens) (UniProt P32241); test: VPAC1 (VIP1) (h) CEREP ligand profiling; details: filed as agonist, Compound concentration 10.0 uM
[17] = molecular target: Serine/threonine-protein kinase 32A (Homo sapiens) (UniProt Q8WU08); details: Compound concentration 1000.0 nM
[18] = molecular target: Dual specificity mitogen-activated protein kinase kinase 5 (Homo sapiens) (UniProt Q13163); details: Compound concentration 1000.0 nM
[19] = molecular target: 5-hydroxytryptamine receptor 2A (Homo sapiens) (UniProt P28223); test: 5-HT2A (h) CEREP ligand profiling; details: filed as antagonist, Compound concentration 10.0 uM
[20] = molecular target: Histamine H1 receptor (Homo sapiens) (UniProt P35367); test: H1 (h) CEREP ligand profiling; details: filed as antagonist, Compound concentration 10.0 uM
Histamine H1 receptor (Homo sapiens), sequence (P35367 whole entry): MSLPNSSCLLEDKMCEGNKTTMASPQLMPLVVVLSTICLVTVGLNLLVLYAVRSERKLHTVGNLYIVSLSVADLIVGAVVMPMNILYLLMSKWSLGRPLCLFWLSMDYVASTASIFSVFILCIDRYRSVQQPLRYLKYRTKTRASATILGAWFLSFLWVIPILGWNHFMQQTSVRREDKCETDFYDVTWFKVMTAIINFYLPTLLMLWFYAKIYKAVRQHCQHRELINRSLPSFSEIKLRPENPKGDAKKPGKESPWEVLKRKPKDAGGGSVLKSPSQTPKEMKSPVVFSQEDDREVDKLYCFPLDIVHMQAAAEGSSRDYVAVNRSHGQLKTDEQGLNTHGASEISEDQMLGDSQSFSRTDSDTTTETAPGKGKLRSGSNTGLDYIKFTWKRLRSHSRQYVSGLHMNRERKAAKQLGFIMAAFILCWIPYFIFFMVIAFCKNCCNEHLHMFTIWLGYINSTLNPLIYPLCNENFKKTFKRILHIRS

[21] = molecular target: Serine/threonine-protein kinase Nek9 (Homo sapiens) (UniProt Q8TD19); details: Compound concentration 1000.0 nM
[22] = molecular target: Motilin receptor (Homo sapiens) (UniProt O43193); test: motilin (h) CEREP ligand profiling; details: filed as agonist, Compound concentration 10.0 uM
Motilin receptor (Homo sapiens), sequence (O43193 whole entry): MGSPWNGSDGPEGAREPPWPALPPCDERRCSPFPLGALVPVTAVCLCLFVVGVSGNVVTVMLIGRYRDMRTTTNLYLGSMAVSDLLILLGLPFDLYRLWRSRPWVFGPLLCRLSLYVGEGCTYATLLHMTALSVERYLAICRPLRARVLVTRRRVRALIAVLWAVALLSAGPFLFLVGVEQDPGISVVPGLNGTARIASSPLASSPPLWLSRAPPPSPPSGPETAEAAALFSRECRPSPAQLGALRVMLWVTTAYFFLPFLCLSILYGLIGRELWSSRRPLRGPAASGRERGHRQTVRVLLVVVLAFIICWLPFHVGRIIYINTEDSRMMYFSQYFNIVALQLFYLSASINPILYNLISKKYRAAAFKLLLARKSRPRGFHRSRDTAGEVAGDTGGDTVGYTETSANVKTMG

[23] = molecular target: Na+ channel (site 2); sodium channel alpha subunit (family) (Homo sapiens, UniProt P35498+P35499+Q01118+Q14524+Q15858+Q99250+Q9NY46+Q9UI33+Q9UQD0+Q9Y5Y9); test: Na+ channel (site 2) CEREP ligand profiling; type: protein assay; details: compound concentration 10 uM
[24] = molecular target: Membrane-associated tyrosine- and threonine-specific cdc2-inhibitory kinase (Homo sapiens) (UniProt Q99640); details: Compound concentration 1000.0 nM
[25] = molecular target: Muscle, skeletal receptor tyrosine-protein kinase (Homo sapiens) (UniProt O15146); details: Compound concentration 1000.0 nM
Muscle, skeletal receptor tyrosine-protein kinase (Homo sapiens), sequence (O15146 whole entry): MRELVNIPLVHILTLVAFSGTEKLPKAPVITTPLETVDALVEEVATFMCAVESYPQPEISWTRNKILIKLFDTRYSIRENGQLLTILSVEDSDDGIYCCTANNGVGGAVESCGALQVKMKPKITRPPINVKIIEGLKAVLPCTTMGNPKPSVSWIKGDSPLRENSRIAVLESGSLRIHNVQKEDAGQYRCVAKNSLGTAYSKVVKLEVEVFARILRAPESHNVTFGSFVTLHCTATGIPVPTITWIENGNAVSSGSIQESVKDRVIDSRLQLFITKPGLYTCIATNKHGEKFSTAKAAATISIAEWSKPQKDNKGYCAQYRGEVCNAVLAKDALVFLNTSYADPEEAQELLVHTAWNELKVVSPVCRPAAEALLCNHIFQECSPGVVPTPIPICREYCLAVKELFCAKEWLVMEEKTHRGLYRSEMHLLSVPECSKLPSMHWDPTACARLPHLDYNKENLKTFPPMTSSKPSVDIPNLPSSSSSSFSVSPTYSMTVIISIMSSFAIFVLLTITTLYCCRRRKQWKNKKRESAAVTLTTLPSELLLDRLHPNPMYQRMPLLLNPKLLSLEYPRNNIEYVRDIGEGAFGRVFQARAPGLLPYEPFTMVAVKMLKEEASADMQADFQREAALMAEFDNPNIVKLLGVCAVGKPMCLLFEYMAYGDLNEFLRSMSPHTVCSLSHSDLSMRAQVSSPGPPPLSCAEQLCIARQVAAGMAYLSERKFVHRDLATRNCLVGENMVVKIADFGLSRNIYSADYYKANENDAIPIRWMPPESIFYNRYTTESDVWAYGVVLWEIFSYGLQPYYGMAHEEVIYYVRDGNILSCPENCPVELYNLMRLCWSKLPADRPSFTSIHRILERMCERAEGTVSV

[26] = molecular target: Serine/threonine-protein kinase MARK2 (Homo sapiens) (UniProt Q7KZI7); details: Compound concentration 1000.0 nM
[27] = molecular target: Dual specificity tyrosine-phosphorylation-regulated kinase 1A (Homo sapiens) (UniProt Q13627); details: Compound concentration 1000.0 nM
[28] = molecular target: Beta-1 adrenergic receptor (Homo sapiens) (UniProt P08588); test: beta 1 (h) CEREP ligand profiling; details: filed as agonist, Compound concentration 10.0 uM
[29] = molecular target: Calcium/calmodulin-dependent protein kinase type II subunit delta (Homo sapiens) (UniProt Q13557); details: Compound concentration 1000.0 nM
[30] = molecular target: Ribosomal protein S6 kinase alpha-4 (Homo sapiens) (UniProt O75676); details: Compound concentration 1000.0 nM
Ribosomal protein S6 kinase alpha-4 (Homo sapiens), sequence (O75676 whole entry, looked up): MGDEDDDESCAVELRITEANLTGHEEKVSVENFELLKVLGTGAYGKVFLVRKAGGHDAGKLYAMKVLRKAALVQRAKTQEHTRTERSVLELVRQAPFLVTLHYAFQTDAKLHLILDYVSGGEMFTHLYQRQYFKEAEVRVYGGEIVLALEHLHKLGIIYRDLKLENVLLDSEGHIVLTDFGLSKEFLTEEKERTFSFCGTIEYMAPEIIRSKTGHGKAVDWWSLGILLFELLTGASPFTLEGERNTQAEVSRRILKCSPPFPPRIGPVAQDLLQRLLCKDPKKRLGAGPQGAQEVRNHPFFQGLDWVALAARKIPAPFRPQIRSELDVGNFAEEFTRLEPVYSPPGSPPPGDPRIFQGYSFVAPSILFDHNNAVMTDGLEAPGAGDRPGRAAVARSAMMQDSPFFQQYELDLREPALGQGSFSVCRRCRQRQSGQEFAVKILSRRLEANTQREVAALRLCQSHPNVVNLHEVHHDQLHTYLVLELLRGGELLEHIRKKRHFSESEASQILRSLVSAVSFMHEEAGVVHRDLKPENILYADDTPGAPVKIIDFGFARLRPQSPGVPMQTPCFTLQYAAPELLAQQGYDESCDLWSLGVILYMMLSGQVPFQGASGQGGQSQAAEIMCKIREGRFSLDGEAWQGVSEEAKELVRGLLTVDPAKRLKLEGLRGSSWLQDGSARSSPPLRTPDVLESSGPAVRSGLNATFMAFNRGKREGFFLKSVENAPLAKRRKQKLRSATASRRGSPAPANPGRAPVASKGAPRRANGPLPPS

[31] = molecular target: Ephrin type-A receptor 6 (Homo sapiens) (UniProt Q9UF33); details: Compound concentration 1000.0 nM
[32] = molecular target: Cyclin-dependent kinase 16 (Homo sapiens) (UniProt Q00536); details: Compound concentration 1000.0 nM
[33] = molecular target: Serine/threonine-protein kinase MRCK beta (Homo sapiens) (UniProt Q9Y5S2); details: Compound concentration 1000.0 nM
[34] = tested on: Receptor-type tyrosine-protein kinase FLT3 (Homo sapiens), P36888 [UNDEFINED MUTATION]; details: Compound concentration 1000.0 nM
Receptor-type tyrosine-protein kinase FLT3 (Homo sapiens), P36888 [UNDEFINED MUTATION], sequence (P36888 whole entry, looked up, change not shown): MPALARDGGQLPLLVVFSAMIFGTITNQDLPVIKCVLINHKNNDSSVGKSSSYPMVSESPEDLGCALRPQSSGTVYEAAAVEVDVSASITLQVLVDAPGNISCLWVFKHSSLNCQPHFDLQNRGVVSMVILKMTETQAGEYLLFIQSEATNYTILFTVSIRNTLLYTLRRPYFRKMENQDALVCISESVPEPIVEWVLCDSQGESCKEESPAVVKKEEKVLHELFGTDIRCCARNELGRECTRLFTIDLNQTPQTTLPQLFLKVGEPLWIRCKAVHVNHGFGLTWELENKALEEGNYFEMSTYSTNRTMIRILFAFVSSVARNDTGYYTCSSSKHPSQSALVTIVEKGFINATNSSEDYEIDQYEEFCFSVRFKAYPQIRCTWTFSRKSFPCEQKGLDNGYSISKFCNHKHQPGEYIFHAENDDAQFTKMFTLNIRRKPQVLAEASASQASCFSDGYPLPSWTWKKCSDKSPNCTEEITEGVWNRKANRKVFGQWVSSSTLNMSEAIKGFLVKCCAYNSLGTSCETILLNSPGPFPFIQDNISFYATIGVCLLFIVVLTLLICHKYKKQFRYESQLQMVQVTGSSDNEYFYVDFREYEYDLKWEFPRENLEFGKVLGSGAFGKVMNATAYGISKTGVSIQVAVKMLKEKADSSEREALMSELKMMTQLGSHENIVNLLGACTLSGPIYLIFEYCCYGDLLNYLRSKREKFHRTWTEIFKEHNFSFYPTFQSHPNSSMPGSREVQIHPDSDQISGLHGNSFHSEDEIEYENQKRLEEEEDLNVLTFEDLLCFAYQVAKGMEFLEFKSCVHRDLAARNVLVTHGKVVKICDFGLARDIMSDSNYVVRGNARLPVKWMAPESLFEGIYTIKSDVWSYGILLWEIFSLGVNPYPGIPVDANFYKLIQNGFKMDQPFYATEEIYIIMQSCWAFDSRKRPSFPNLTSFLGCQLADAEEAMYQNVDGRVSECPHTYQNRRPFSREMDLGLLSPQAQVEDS

[35] = molecular target: Cyclin-dependent kinase 4 (Homo sapiens) (UniProt P11802); details: Compound concentration 1000.0 nM
Cyclin-dependent kinase 4 (Homo sapiens), sequence (P11802 whole entry): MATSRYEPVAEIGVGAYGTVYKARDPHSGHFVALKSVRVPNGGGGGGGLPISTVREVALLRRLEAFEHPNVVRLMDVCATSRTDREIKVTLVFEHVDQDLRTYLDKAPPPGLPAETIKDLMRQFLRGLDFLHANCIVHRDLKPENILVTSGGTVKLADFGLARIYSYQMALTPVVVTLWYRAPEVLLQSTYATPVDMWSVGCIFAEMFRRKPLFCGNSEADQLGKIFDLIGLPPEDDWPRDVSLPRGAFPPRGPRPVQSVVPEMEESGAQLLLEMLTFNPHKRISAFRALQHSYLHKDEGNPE

[36] = molecular target: Mitogen-activated protein kinase 1 (Homo sapiens) (UniProt P28482); details: Compound concentration 1000.0 nM

Row | SMILES | residual activity [1] | residual activity [2] | residual activity [3] | inhibition [4] | residual activity [5] | residual activity [6] | residual activity [7] | residual activity [8] | residual activity [9] | residual activity [10] | residual activity [11] | residual activity [12] | inhibition [13] | inhibition [14] | residual activity [15] | inhibition [16] | residual activity [17] | residual activity [18] | inhibition [19] | inhibition [20] | other results
1 | CNC(=O)Nc1ccc2c(c1)[C@@]1(CC2)OC(=O)N(CC(=O)N(Cc2ccc(F)cc2)[C@@H](C)C(F)(F)F)C1=O [A-486] | 96% | 100% | 100% | -1% | 100% | 92% | 86% | 92% | 82% | 100% | 85% | 100% | 0.33% | 24.7% | 100% | -8% | 100% | 89% | 8% | 7% | residual activity [21]: 95%; inhibition [22]: 41%; inhibition at 10 µM [23]: -5% (not active); residual activity [24]: 92%; residual activity [25]: 100%; residual activity [26]: 100%; residual activity [27]: 77%; inhibition [28]: 6%; residual activity [29]: 100%; residual activity [30]: 88%; residual activity [31]: 91%; residual activity [32]: 83%; residual activity [33]: 80%; residual activity [34]: 87%; residual activity [35]: 100%; residual activity [36]: 91%
2 | CNC(=O)Nc1ccc2c(c1)CC[C@@]21OC(=O)N(CC(=O)N(Cc2ccc(F)cc2)[C@@H](C)C(F)(F)F)C1=O [A-485] | 80% | 63% | 100% | 3% | 87% | 82% | 89% | 91% | 81% | 86% | 100% | 100% | 4.23% | 19% | 77% | -5% | 88% | 83% | 14% | 22% | residual activity [21]: 78%; inhibition [22]: -4%; inhibition at 10 µM [23]: 19% (not active); residual activity [24]: 74%; residual activity [25]: 91%; residual activity [26]: 100%; residual activity [27]: 64%; inhibition [28]: 17%; residual activity [29]: 91%; residual activity [30]: 72%; residual activity [31]: 79%; residual activity [32]: 75%; residual activity [33]: 73%; residual activity [34]: 84%; residual activity [35]: 79%; residual activity [36]: 91%
